Like-named read-outs stand apart in the source and are kept apart here. Marks after values point to notes of the source that are not given here.
What was measured:
Recombinant cruzain = molecular target: T1, Recombinant cruzain (Trypanosoma cruzi, UniProt P25779); experiment: Enzyme kinetic assay for cruzain (Z-FR-AMC hydrolysis); type: biochemical; details: pKi = -log10(Ki/M); uncertainty in parentheses; 37°C, pH 5.5
T1 construct: consisting of the catalytic domain of cruzipain but excluding the carboxy-terminal extension; made in house
Method: Recombinant cruzain, consisting of the catalytic domain of cruzipain but excluding the carboxy-terminal extension, was expressed and purified as previously described. Enzyme kinetic assays for cruzain were carried out at 37°C in 200 μL of a solution containing 100 mM acetate buffer pH 5.5, 300 mM NaCl, 5 mM dithiothreitol (DTT), 5% v/v dimethyl sulfoxide (DMSO), 0.01% v/v Triton X-100 and 0.15 nM cruzain, using Corning® 96-well black flat bottom microplates. (S)-N-(1-((cyanomethyl)amino)-1-oxo-3-phenylpropan-2-yl)benzamide was used as a positive control. The rate of the reaction was monitored using a Biotek Synergy HT plate reader through the fluorescence emission at 460 nm (excitation at 355 nm) due to the hydrolysis of the substrate Z-Phe-Arg-7-amido-4-methylcoumarin (Z-FR-AMC, Sigma-Aldrich). The enzyme stock aliquot was rapidly thawed at 37°C and kept on ice until activation, in which it was incubated for 20 min. in the assay buffer (100 mM acetate pH 5.5 and 5 mM DTT) followed by additional 2 min. incubation with inhibitors before the reaction was started by the addition of the substrate.
Visual inspection and a pre-reading of plate wells were performed to check for possible precipitation and background fluorescence, respectively. Fluorescence emission spectra were also recorded for all inhibitors, using the same excitation wavelength (355 nm) as for the fluorometric assay. […] The reaction was started by the addition of varying concentrations of the substrate and the wells monitored for a total of 5 minutes of reaction. The initial velocities of the substrate hydrolysis under first-order reaction were calculated by Gen5 Biotek software based on the linear-regression coefficient from the data fitting of Relative Fluorescence Unit (mRFU) as a function of time (min).
Each experiment was performed in duplicates for each compound being tested. A control measurement in absence of inhibitor (KM) was carried out for each setup plate and the kinetic affinity constants (Ki) were calculated from non-linear fit of Michaelis-Menten curves to the data of initial velocities as a function of eight different concentrations of the substrate Z-FR-AMC from 30.0–0.8 μM. All inhibitors were evaluated in two different concentrations, which were chosen based on a previous screening (percentage of inhibition) at 1.7 μM substrate (~KM). SigmaPlot (v. 10.0) was employed for the non-linear fit and the kinetic parameters determination.

cathepsin L [1] = molecular target: T2, cathepsin L (Homo sapiens, UniProt P07711); experiment: Enzyme kinetic assay for cathepsin L; type: biochemical; details: pKi = -log10(Ki/M); uncertainty in parentheses; 37°C, pH 5.5
Method: (§1) Enzyme kinetic assays for cathepsin L were performed in a similar manner to the cruzain assays at 37°C in 200 μL of a solution containing 100 mM acetate buffer pH 5.5, 300 mM NaCl, 1 mM dithiothreitol (DTT), 1 mM EDTA, 5% v/v dimethyl sulfoxide (DMSO), 0.01% v/v Triton X-100 and 0.30 nM cathepsin L, using Corning® 96-well black flat bottom microplates. Using the QFRET technology, compounds 9–12 were tested for inhibition of cathepsin L-mediated cleavage of a synthetic peptide Z-Phe-Arg-AMC (10 μM final concentration) using 0.1 nM [final] human Cat L (prepared in-house). […]

[2] = tested on: amastigote forms of T. cruzi CL Brener strain; experiment: Anti-trypanosomal activity assay (beta-galactosidase reporter, infected LLC-MK2 cells); type: cell-based; details: Trypanosoma cruzi
Method: Assays were performed against amastigote forms of T. cruzi CL Brener strain, which expresses β-galactosidase derived from Escherichia coli, infecting monkey kidney (LLC-MK2) cells as described. Previously, LLC-MK2 host cells were cultivated in 96-wells microplates (10^3 cells/well). […] Then, the wells were washed with PBS to remove the extracellular parasites and the tested compounds were added in the final concentrations of 0.031, 0.125, 0.5, 2.0, 8.0, 32.0, 128 and 512 μM. After this, the microplates were incubated at 37°C, in CO2 atmosphere (5%), for 5 days. Then, 10 μL of FluoReporter lacZ/Galactosidase Quantitation Kit (Molecular Probes, ThermoFisher Scientific) were added and after 30 minutes the fluorometric reaction was read in a microplate reader (Synergy H1, Biotek) at 386 nm excitation and 448 nm emission. The metabolism of the substrate is directly correlated with the amount of β-galactosidase activity and, therefore, the number amastigotes. The percentage of activity for each compound was determined from the following formula: %activity = 100 –{[(X-PC)/(NC-PC)]x100}, where the optical density values of the samples (X), the positive controls (PC) and negative controls (NC) were used. Culture medium alone was used as positive control (PC) and cells with medium and 0.6% DMSO (v/v) as negative control (NC). All assays were performed in triplicate with two independent experiments.

LLC-MK2 cells = experiment: Cytotoxicity in LLC-MK2 cells; type: cell-based, monkey; details: % cytotoxicity in LLC-MK2 cells at 128 μM; standard deviation (N = 6) in parentheses
From the text: Table 2 Anti-trypanosomal activity of cysteine protease inhibitors. | column: Cytotox LLC-MK2 ^c

[3] = tested on: Balb/C 3T3 clone A31 cells; experiment: MTT colorimetric cytotoxicity assay; type: cell-based, mouse; details: % cytotoxicity in Balb/C 3T3 clone A31 cells at 128 μM; standard deviation (N = 8) in parentheses
Method: Inhibition values were determined in the cell-based assay as previously described. […] Cells were plated at a concentration of 10^5 cell/mL in 96-well plates and incubated for 24 h. […] The cell viability was assessed during 24, 48 and 72 h using the MTT (Sigma-Aldrich) reagent, with an incubation time of 3 h. Formazan crystals were dissolved using a solubility reagent composed of DMSO, glacial acetic acid and […] for 1 h. The readout was obtained using Biotek Synergy HT plate reader at 570 nm. Benznidazole was used as control. This assay was done in quadruplicate in two independent experiments. Statistical analyses were made in GraphPad Prism 5. Concentration-response curves were fitted for the best compounds and the statistical parameters are provided with the graphs in S9 Fig in the supplemental material.

cathepsin L [4] = molecular target: T2, cathepsin L; details: pIC50 = -log10(IC50/M); cited from earlier work
Cathepsin K = details: pIC50 = -log10(IC50/M); cited from earlier work
Cathepsin B = details: pIC50 = -log10(IC50/M); cited from earlier work
Cathepsin S = details: pIC50 = -log10(IC50/M); cited from earlier work
human Cat L = molecular target: T3, human Cat L (Homo sapiens, UniProt P07711); experiment: Cat L inhibition assay (QFRET, Z-Phe-Arg-AMC cleavage); type: biochemical; details: pIC50 = -log10(IC50/M); determined using the Cat L inhibition assay method of ref. 24; pH 6.4; read-out: Cathepsin L pIC50 (converted)
T3 construct: made in house
Method: as §1

[5] = 120 h, pEC50 = -log10(EC50/M), T. cruzi CL Brener amastigotes in LLC-MK2 cells, 5 days, read-out: pEC50 (anti-trypanosomal activity) (converted)
[6] = LLC-MK2, 0.125 μM, standard deviation (N = 6) in parentheses, read-out: %activity at 0.125 μM
[7] = LLC-MK2, 0.5 μM, standard deviation (N = 6) in parentheses, read-out: %activity at 0.5 μM
[8] = LLC-MK2, 2 μM, standard deviation (N = 6) in parentheses, read-out: %activity at 2 μM
[9] = LLC-MK2, 8 μM, standard deviation (N = 6) in parentheses, read-out: %activity at 8 μM
[10] = LLC-MK2, T. cruzi CL Brener strain, read-out: EC50 (anti-trypanosomal activity)

T1 sequence (P25779 123-337 limits assumed): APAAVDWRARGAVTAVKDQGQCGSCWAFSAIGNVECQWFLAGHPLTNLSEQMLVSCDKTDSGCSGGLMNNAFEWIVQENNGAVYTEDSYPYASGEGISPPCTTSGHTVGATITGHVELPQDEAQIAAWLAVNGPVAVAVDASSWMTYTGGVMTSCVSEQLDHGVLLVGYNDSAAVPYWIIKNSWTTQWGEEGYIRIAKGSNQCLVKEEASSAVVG
T2 sequence (P07711 114-333, species assumed): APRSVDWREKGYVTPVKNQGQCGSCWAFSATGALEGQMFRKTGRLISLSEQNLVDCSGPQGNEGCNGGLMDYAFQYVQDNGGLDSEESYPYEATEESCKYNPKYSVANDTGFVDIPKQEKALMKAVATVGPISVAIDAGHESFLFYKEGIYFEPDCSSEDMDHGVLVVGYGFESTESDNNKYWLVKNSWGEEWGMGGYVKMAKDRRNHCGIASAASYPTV
T3 sequence (P07711 114-333): as the sequence (P07711 114-333, species assumed) above

Row | SMILES | Ki (Recombinant cruzain) [nM] | Ki (cathepsin L [1]) [µM] | EC50 [2, 5] [nM] | inhibition at 0.125 µM [2, 6] [%] | inhibition at 0.5 µM [2, 7] [%] | inhibition at 2 µM [2, 8] [%] | inhibition at 8 µM [2, 9] [%] | EC50 [2, 10] [nM] | Cytotox LLC-MK2 (LLC-MK2 cells) | Cytotox Balb/C 3TC [3] | Cathepsin L pIC50 (cathepsin L [4]) | Cathepsin K pIC50 (Cathepsin K) | Cathepsin B pIC50 (Cathepsin B) | Cathepsin S pIC50 (Cathepsin S) | IC50 (human Cat L) [µM] | inhibition at 0.125 µM ([2]; LLC-MK2, read-out: %activity at 0.125 μM) [%] | inhibition at 0.5 µM ([2]; LLC-MK2, read-out: %activity at 0.5 μM) [%] | inhibition at 2 µM ([2]; LLC-MK2, read-out: %activity at 2 μM) [%] | inhibition at 8 µM ([2]; LLC-MK2, read-out: %activity at 8 μM) [%]
1 | N#CC1(NC(=O)[C@H](Cc2ccccc2)N[C@H](c2ccccc2)C(F)(F)F)CC1 [Compound 5, (S)-N-(1-cyanocyclopropyl)-3-phenyl-2-(((R)-2,2,2-trifluoro-1-phenyl-ethyl)amino)propanamide] | 2510 | 0.794 | 126 | 44 | 55 | 62 | 70 | 120 | 0 (0) % | 1 (7) % | – | – | – | – | – | – | – | – | –
2 | N#CCNC(=O)[C@@H]1CCCC[C@H]1C(=O)N1CCN(c2ccccc2)CC1 [Compound 8] | 5010 | – | – | 1 | 7 | 21 | 35 | – | 29 (8) % | 0 (0) % | < 4 ^e | 8.1 ^e | 6.3 ^e | 6.0 ^e | – | – | – | – | –
3 | O=C(Cn1ccnc1[N+](=O)[O-])NCc1ccccc1 [Compound 1, benznidazole] | – | – | 2510 | 3 | 7 | 33 | 59 | – | 41 (8) % | 0 (0) % | – | – | – | – | – | – | – | – | –
4 | Cc1nn(C)c2cc(N3CCN(C(=O)[C@@H]4CCCC[C@H]4C(=O)NC4(C#N)CC4)[C@H](C)C3)ccc12 [Compound 12] | 3160 | – | 1260 | 20 | 40 | 45 | 50 | 1300 | 8 (2) % | 0 (0) % | – | 8.0 ^g | 6.1 ^g | 5.9 ^g | > 10 | – | – | – | –
5 | COc1cc(N2CCN(C(=O)[C@@H]3CCCC[C@H]3C(=O)NC3(C#N)CC3)[C@H](C)C2)ccc1C1CC1 [Compound 11] | 2510 | – | 251 | 33 | 62 | 76 | 83 | 250 | 36 (7) % | 0 (0) % | – | 8.5 ^g | 5.9 ^g | 5.9 ^g | > 10 | – | – | – | –
6 | CC(C)(F)C[C@H](N[C@@H](c1ccc(-c2ccc(S(C)(=O)=O)cc2)cc1)C(F)(F)F)C(=O)NC1(C#N)CC1 [Compound 4, odanacatib] | 126 | 6.31 | 2510 | 22 | 28 | 36 | 44 | – | 31 (4) % | 27 (15) % | 5.5 ^d | 9.7 ^d | 6.0 ^d | 7.2 ^d | – | – | – | – | –
7 | N#CCNC(=O)[C@@H]1CCCC[C@H]1C(=O)N1CCCCC1 [Compound 7] | 7940 | – | – | 0 | 2 | 9 | 12 | – | 4 (3) % | 2 (7) % | < 4 ^e | 7.1 ^e | 5.1 ^e | 5.7 ^e | – | – | – | – | –
8 | COc1ccc(N2CCN(C(=O)[C@@H]3CCCC[C@H]3C(=O)NC3(C#N)CC3)[C@H](C)C2)cc1OC [Compound 10] | 1260 | – | – | – | – | – | – | – | 15(3) % | 0 (0) % | – | 8.4 ^g | 5.7 ^g | 5.8 ^g | > 10 | 6 | 22 | 26 | 28
9 | CS(=O)(=O)c1ccc(N2CCN(C(=O)[C@@H]3CCCC[C@H]3C(=O)NC3(C#N)CC3)CC2)cc1 [Compound 9] | 5010 | – | – | 6 | 15 | 30 | 33 | – | 0 (0) % | 3 (7) % | – | 7.7 ^g | 5.6 ^g | 5.7 ^g | > 10 | – | – | – | –
